Cytotoxicity data for 70 compounds are collected here from ChEMBL document CHEMBL3507680, “University of Dundee, Gates Library screen for HepG2 cell viability”.

A short description of this data set: Human HepG2 cell viability assay in 384 well format. It counts as toxicity, cell-based. The arrangement: dose 125 nL, time 70.5 hour; cytotoxicity at 70.5 h: concentration not given beside the values. The conditions noted are these: HepG2 cells, read-out: Inhibition.

Turning to `C=C(C)COc1cccc(C(=O)N(C)Cc2cc(CC)no2)c1`, the cytotoxicity at 70.5 h was -3.37%.

In the case of `CC1=CCN(S(=O)(=O)c2cccc(C(=O)N3CCOCC3)c2)CC1`, the cytotoxicity at 70.5 h is -15.8%.

`O=C(NCCc1ccccc1)c1cccc(S(=O)(=O)NC2CCOC2)c1` (stereo not given): the cytotoxicity at 70.5 h was 19.4%.

Consider `Cc1ncnc(N2CCN(C(=O)C3CC4(CCNCC4)CN3)CC2)c1C` (stereo not given), for which the cytotoxicity at 70.5 h amounted to 13.5%.

On to `CCS(=O)(=O)c1ncc(CN2CCSCC2)n1CCc1ccccc1`, for which the cytotoxicity at 70.5 h is -11.3%.

Take `CN(C)C(C(=O)N1CC(Oc2ccccc2F)C1)c1ccc(F)cc1` (stereo not given): the cytotoxicity at 70.5 h is -0.723%.

On to `COc1ccc(C(=O)N2CC[C@](C)(O)[C@H](C)C2)cc1N1CCOCC1`, for which the cytotoxicity at 70.5 h is -8.2%.

Turning to `Cc1n[nH]c(C)c1CCC(=O)NCC1CCCN(C2CCCC2)C1` (stereo not given), the cytotoxicity at 70.5 h amounted to 30.3%.

Regarding `CCOc1cccc(C2CC(=O)NCc3nc(N4CCCC4)sc32)c1` (stereo not given), the cytotoxicity at 70.5 h was -3%.

Regarding `COCc1cc(N(C)CCC(O)c2ccccc2)n2nccc2n1` (stereo not given), the cytotoxicity at 70.5 h is -7.44%.

In the case of `COC[C@]1(O)CCN(Cc2cnc(N(C)C)nc2)CC1(C)C`, the cytotoxicity at 70.5 h is -18.8%.

Regarding `Cc1ccccc1C(C(=O)NCCSC(C)C)N(C)C` (stereo not given), the cytotoxicity at 70.5 h is -9.38%.

For `Cc1cc(NCCc2nnc(N)s2)nc(-c2ccccc2)n1`, the cytotoxicity at 70.5 h was -2.76%.

`c1cnc(N2CCC(c3nccn3CC3CC3)CC2)nc1`: the cytotoxicity at 70.5 h is -2.28%.

As to `Cn1cc(C2=CCN(CCC(=O)NCc3ccc(Cl)cc3)CC2)cn1`, the cytotoxicity at 70.5 h is -2.89%.

With `CC(C)n1cc(-c2c(C#N)c(N)nc3c2COCC3)cn1`, the cytotoxicity at 70.5 h is 10.2%.

In the case of `Cc1ccc(C(=O)N2C[C@H]3CC[C@@H]2CN(S(=O)(=O)N(C)C)C3)c(O)c1`, the cytotoxicity at 70.5 h is 14.2%.

As for `CN1C[C@@H](n2cnc(-c3ccccc3)c2-c2ncc[nH]2)C[C@H]1C(=O)O`, the cytotoxicity at 70.5 h amounted to 5.36%.

As for `CN1N=C(C(=O)N2CCCC(CCc3cccc(F)c3)C2)CCC1=O` (stereo not given), the cytotoxicity at 70.5 h is -3.78%.

With `COc1ccc(NC2CCCN(Cc3cnc(N(C)C)s3)C2)cc1OC` (stereo not given), the cytotoxicity at 70.5 h is -12%.

Consider `Cc1ccc2nc(CN3CCCCC3CCN3CCOCC3)cn2c1` (stereo not given), for which the cytotoxicity at 70.5 h was -10.8%.

For the compound `CC(c1ccccn1)N(C)Cc1ccc(CCC(C)(C)O)cc1` (stereo not given), the cytotoxicity at 70.5 h is -1.13%.

Regarding `CSCC1CCN(C(=O)Cn2ncc(N3CCCCC3)cc2=O)CC1`, the cytotoxicity at 70.5 h is -16.3%.

In the case of `CC(C)CN1CC2(CCN(C(=O)c3cnccn3)CC2)CC1=O`, the cytotoxicity at 70.5 h was -15%.

In the case of `CCc1cc(N(C)Cc2[nH]nc3c2CCC3)nc(N2CCOCC2)n1`, the cytotoxicity at 70.5 h is -15.5%.

On to `Cc1cccc(-n2cc(CN3CCN(C)[C@@H]4CS(=O)(=O)C[C@@H]43)cn2)c1`, for which the cytotoxicity at 70.5 h is -15.9%.

As for `O=C1CSc2ccccc2N1CC(=O)N1CCCCC1c1nccs1` (stereo not given), the cytotoxicity at 70.5 h was -8.8%.

For the compound `OCc1csc(N2CCCC(COc3cccc(F)c3)C2)n1` (stereo not given), the cytotoxicity at 70.5 h is -9.22%.

Take `Cn1ncc(N2CCOC(CCNC(=O)N3CCCCC3)C2)cc1=O` (stereo not given): the cytotoxicity at 70.5 h is -6.9%.

For `CN(CCCO)Cc1cc(Cl)ccc1OCC(O)CN1CCCCCC1` (stereo not given), the cytotoxicity at 70.5 h was -7.24%.

In the case of `CCN(C)C(=O)c1ccc(N2CCC(Oc3cccc(F)c3)CC2)nc1`, the cytotoxicity at 70.5 h is -4.75%.

Take `Cc1ccc(OC2CCN(C(=O)C(C)Cn3cccn3)CC2)cc1` (stereo not given): the cytotoxicity at 70.5 h was 0.0943%.

For `COc1ccc(-n2nc(C)c(C(C)=O)c2C)cc1C(N)=O`, the cytotoxicity at 70.5 h came to 2.1%.

`Cc1cn(Cc2nc(CC(C)C)nn2-c2ccccn2)c(=O)[nH]c1=O`: the cytotoxicity at 70.5 h is -1.31%.

Consider `O=C(Nc1ccc(F)cc1)C1CNCCN1C(=O)CCc1cccnc1` (stereo not given), for which the cytotoxicity at 70.5 h is -5.37%.

Consider `Cn1ccnc1C1CCN(CCN2CCOCC2)CC1`, for which the cytotoxicity at 70.5 h was -8.74%.

In the case of `O=C(N1CCOCC(O)C1)C1(c2ccc(Cl)cc2)CCC1` (stereo not given), the cytotoxicity at 70.5 h turned out to be 21.7%.

Regarding `CCC(C)N(Cc1cccnc1)C(=O)CCSC` (stereo not given), the cytotoxicity at 70.5 h is -8.8%.

In the case of `COC(=O)[C@@H](NC(=O)c1coc(COc2cccc(F)c2F)n1)C(C)C`, the cytotoxicity at 70.5 h was -11.7%.

Consider `CN(Cc1ccoc1)C(=O)C1CCN(C(=O)C2CCCC2)CC1`, for which the cytotoxicity at 70.5 h stood at 27.9%.

Take `CC(C)=CCCC1(C)CCC(=O)N(CCc2nc(N)cc(O)n2)C1` (stereo not given): the cytotoxicity at 70.5 h is -6.54%.

In the case of `COc1ccc(C(=O)N2CCC3(CCC(=O)N(C(C)C)C3)CC2)cc1C`, the cytotoxicity at 70.5 h is -6.63%.

Turning to `NC1CCN(C(=O)c2cnc(Cc3c(Cl)cccc3Cl)nc2O)C1` (stereo not given), the cytotoxicity at 70.5 h was found to be 13.3%.

Consider `CC(=O)c1c(C)nn(CC(=O)N2Cc3cnc(CC(C)C)nc3C2)c1C`, for which the cytotoxicity at 70.5 h is -8.3%.

As for `O=C1CCCc2cc(S(=O)(=O)NCc3ccccn3)ccc2N1`, the cytotoxicity at 70.5 h was -11%.

Regarding `CCCn1ncc(C(=O)NC2CCN(CC3CCCO3)CC2)c1C` (stereo not given), the cytotoxicity at 70.5 h was found to be 25.6%.

In the case of `CNc1cc(-c2cccc(CN)c2)c2cc[nH]c2n1`, the cytotoxicity at 70.5 h is -13.9%.

Regarding `CCCc1cnc(C)nc1N1CCC(Cn2cc(CO)nn2)CC1`, the cytotoxicity at 70.5 h was -3.5%.

For the compound `O=C(NCc1ccccn1)C1CN(c2nc3ccccc3s2)CCN1` (stereo not given), the cytotoxicity at 70.5 h is -8.77%.

On to `COc1coc(CN2CCCC(CCc3c(F)cccc3F)C2)cc1=O` (stereo not given), for which the cytotoxicity at 70.5 h was -2.32%.

Consider `COc1ccc(Oc2nccc3occc23)cc1CN1CCCC1`, for which the cytotoxicity at 70.5 h is -6.39%.

`Cc1cc2nc(C(C)C)cc(N3CCSCC3)n2n1`: the cytotoxicity at 70.5 h stood at 16.2%.

Turning to `COc1cccc(NC(=O)CN2CCN(S(C)(=O)=O)CC2)c1`, the cytotoxicity at 70.5 h was -8.85%.

On to `CC(C)CN1CCc2[nH]cnc2C12CCN(C(=O)c1cncn1C)CC2`, for which the cytotoxicity at 70.5 h is -5.88%.

Turning to `N#Cc1cccc(N2CCC3(CCC(=O)N(CCCO)C3)CC2)n1`, the cytotoxicity at 70.5 h was -9.82%.

For `CC(C)NC(=O)[C@@H]1C[C@@H](N)CN1C(=O)c1cc2c([nH]c1=O)CCCC2`, the cytotoxicity at 70.5 h was -6.99%.

For the compound `CC(C)N1CCC[C@H]1C(=O)NCC1CCN(c2cnn(C)c(=O)c2)CC1`, the cytotoxicity at 70.5 h was -8.1%.

As to `CCOC(=O)c1c(NC(=O)C2CCN(C(C)=O)CC2)sc(C)c1CC`, the cytotoxicity at 70.5 h is -6.22%.

As for `Cc1ccc2nc(C)cc(C(=O)NC(C)c3nnn[nH]3)c2c1` (stereo not given), the cytotoxicity at 70.5 h was -0.653%.

As to `CCn1nc(C)c(NC(=O)CN(C)C(C)c2ccon2)c1C` (stereo not given), the cytotoxicity at 70.5 h was 3.79%.

Take `CN1CCN(Cc2ccc(-c3ccc4[nH]ccc4c3)nc2)CC1`: the cytotoxicity at 70.5 h is -15.3%.

As for `Cc1noc(C)c1CN(C)C(=O)c1n[nH]c(N)c1-c1ccccc1`, the cytotoxicity at 70.5 h was -5.4%.

For the compound `Cc1cnccc1-c1cc(NCCO)nc2[nH]ccc12`, the cytotoxicity at 70.5 h is 14.2%.

Consider `CCNc1c(NC(=O)NC(C)C)c(=O)oc2ccccc12`, for which the cytotoxicity at 70.5 h is -8.94%.

As to `Cc1c[nH]c(CN(C)C(=O)c2ccc(CSc3nnc[nH]3)o2)n1`, the cytotoxicity at 70.5 h was -1.05%.

In the case of `CNS(=O)(=O)c1cc(C)c2[nH]c(=O)cc(C)c2c1`, the cytotoxicity at 70.5 h is -16.4%.

As to `Cc1ccc(CCN[C@@H]2c3ccccc3C3(CCNCC3)[C@H]2O)s1`, the cytotoxicity at 70.5 h is -2.07%.

For the compound `CN(C)C(=O)c1ccc2c(c1)N(C)C(CC(=O)NCc1ncc[nH]1)CO2` (stereo not given), the cytotoxicity at 70.5 h was -5.15%.

With `O=C(NCc1ccco1)c1ccc(N2CCOCC2)cc1`, the cytotoxicity at 70.5 h worked out at 0.191%.

In the case of `Cc1ccc(OCCCSC2=NCCN2)cc1`, the cytotoxicity at 70.5 h is -3.22%.
